In patent US10758620B2, “Potentiated antimicrobial agents” (SEPTEOS, priority 2014, dated 2020):
Where two headings read alike, the source gives them in different places.

Experiments:
Type in all cases: cell-based
[1] = test system: E. Coli Strain 08138; assay: Etest, E. Coli Strain 08138; settings: for MIC: Escherichia coli, read-out: MIC of Pipera tazo, Strain 08138; for MIC of Cefoxitine: Strain 08138
Source text: (§1) The corresponding tests are made based on the usual MIC test: the Etest® (Biomerieux) strip is deposited onto the surface of a seeded agar medium in which the booster has been incorporated. This test enables solvent effect risks, that is a possible interaction with the solvent used in vitro, to be minimised.
(§2) The control corresponds to the test made without cineol. A control is made in each solvent tested: distilled water, Tween/water and DMSO.
(§3) ED control=antibiotic alone in distilled water
(§4) DMSO control=antibiotic alone in DMSO
(§5) TE control=antibiotic alone in Tween® 80

[2] = test system: Strain 10168 SARM; assay: Growth test in liquid medium; settings: compound at a very low dose
Source text: The growth tests are made in a liquid medium with prior dispersing the antibiotic booster in a suitable solvent (tween/water).
4XMIC means that the concentration of antibiotic is 4 times higher than its MIC, measured when used alone on the strain considered.

[3] = test system: E. Coli Strain 8150; assay: Etest, E. Coli Strain 8150; settings: for MIC: Escherichia coli, read-out: MIC of Pipera tazo, Strain 8150; for MIC of Meropenem / MIC of Tigecycline: Strain 8150
Source text: as §1, §2, §3, §4, §5

[4] = test system: Strain 09003, methicillin resistant S. aureus (MRSA); assay: Resistance test (resistant mutants), Strain 09003; settings: MRSA, text after Table 15
Method: After 48 h incubation, the presence or absence of colonies likely to be resistant mutants is observed.
ED control or DMSO=only distilled water or DMSO is added
Ciprofloxacine DMSO: addition of Ciprofloxacine in DMSO

[5] = test system: MRSA 10178; assay: Etest, staphylococci MRSA 10178; settings: MRSA 10178
Source text: as §1, §2, §3, §4, §5

[6] = test system: Staphylococcus; assay: MIC measurement in agar medium (dilution test), Staph; settings: potentiator alone
Source text: (§6) Inhibitory minimum concentration measurement tests are made in a solid agar medium according to international standards in force (CLSI M7-A9 Jan 12 standards): dispersion of the compounds to be tested in a Mueller Hinton gelose. An adaptation relating to the hydrophobicity of compounds and compositions is however necessary to disperse them in the medium: dilution of the compounds in a solvent. The compounds and compositions incorporated in the agar medium can be diluted beforehand in one or more solvents (Tween® 80 diluted with water, Tween® 80 diluted with […], DMSO diluted with water). The strains are deposited onto the agar surface with a steers apparatus. In the examples, different dissolution methods for products are tested in parallel to circumvent the problems of water/solvent distribution coefficient of the molecules (antimicrobial and potentiator) whereas the bacteria grow only in the aqueous phase. The technical requirement will not intervene in in vivo tests. The same dilution methods can be implemented in a liquid medium (microplates and tubes). The same methodology is implemented with fungi. […] MIC measurement: the minimum inhibitory concentration measurement tests are made in an agar solid medium according to international standards in force (CLSI standards), according to the previously defined protocol. […] The booster contribution as compared with the MIC of the antibiotic alone is expressed in a (MIC ATB)/(MIC ATB+booster) ratio. Thereby, gains are defined: […]

[7] = test system: Pseudomonas Strain 08131; assay: Etest, Pseudomonas Strain 08131; settings: for MIC: Pseudomonas, STRAIN08131, Strain 08131, read-out: MIC of Pipera tazo; for MIC of Meropenem: Strain 08131
Source text: as §1, §2, §3, §4, §5

[8] = test system: methicillin resistant S. aureus (MRSA) strains 09003, 10168; assay: MIC of the potentiator used alone on the strains of Examples 3 and 4; settings: Staphylococcus aureus, on these strains
[9] = test system: Pseudomonas aeruginosa; assay: MIC measurement in agar medium (dilution test), Pyo; settings: potentiator alone
Source text: as §6

[10] = booster 1 mg/L in agar, Tween/water
[11] = booster 4 mg/L in agar, Tween/water
[12] = booster 16 mg/L in agar, Tween/water

Compound: O=C(OCc1ccccc1)c1ccccc1 [BB, benzyl benzoate]
- MIC ([1]; booster 1 mg/L in agar, DMSO): 3 µg/mL
- MIC [1, 10]: 6 µg/mL
- MIC ([1]; booster 4 mg/L in agar, DMSO): 6 µg/mL
- MIC [1, 11]: 4 µg/mL
- MIC ([1]; booster 16 mg/L in agar, DMSO): 6 µg/mL
- MIC [1, 12]: 4 µg/mL
- MIC of Cefoxitine ([1]; booster 1 mg/L in agar, DMSO): 2 mg/L
- MIC of Cefoxitine [1, 10]: 2 mg/L
- MIC of Cefoxitine ([1]; booster 4 mg/L in agar, DMSO): 3 mg/L
- MIC of Cefoxitine [1, 11]: 2 mg/L
- MIC of Cefoxitine ([1]; booster 16 mg/L in agar, DMSO): 2 mg/L
- MIC of Cefoxitine [1, 12]: 3 mg/L
- effect of the compound on bactericidal rate of Augmentin [2]: enables the bactericidal rate of Augmentin® to be accelerated
- MIC ([3]; booster 1 mg/L in agar, DMSO): 0.75 µg/mL
- MIC [3, 10]: 1.5 µg/mL
- MIC ([3]; booster 4 mg/L in agar, DMSO): 1 µg/mL
- MIC [3, 11]: 1 µg/mL
- MIC ([3]; booster 16 mg/L in agar, DMSO): 1 µg/mL
- MIC [3, 12]: 1.5 µg/mL
- MIC of Meropenem ([3]; booster 1 mg/L in agar, DMSO): 0.047 mg/L
- MIC of Tigecycline ([3]; booster 1 mg/L in agar, DMSO): 0.125 mg/L
- MIC of Meropenem [3, 10]: 0.094 mg/L
- MIC of Tigecycline [3, 10]: 0.125 mg/L
- MIC of Meropenem ([3]; booster 4 mg/L in agar, DMSO): 0.064 mg/L
- MIC of Tigecycline ([3]; booster 4 mg/L in agar, DMSO): 0.094 mg/L
- MIC of Meropenem [3, 11]: 0.064 mg/L
- MIC of Tigecycline [3, 11]: 0.19 mg/L
- MIC of Meropenem ([3]; booster 16 mg/L in agar, DMSO): 0.094 mg/L
- MIC of Tigecycline ([3]; booster 16 mg/L in agar, DMSO): 0.125 mg/L
- MIC of Meropenem [3, 12]: 0.094 mg/L
- MIC of Tigecycline [3, 12]: 0.094 mg/L
- occurrence of mutants on addition of the compound to ciprofloxacine [4]: does not cause the occurrence of mutants any longer
- MIC of Cefoxitine ([5]; booster 1 mg/L in agar, DMSO): 3 mg/L
- MIC of Tigecycline ([5]; booster 1 mg/L in agar, DMSO): 0.047 mg/L
- MIC of Cefoxitine [5, 10]: 3 mg/L
- MIC of Tigecycline [5, 10]: 0.094 mg/L
- MIC of Cefoxitine ([5]; booster 4 mg/L in agar, DMSO): 2 mg/L
- MIC of Tigecycline ([5]; booster 4 mg/L in agar, DMSO): 0.125 mg/L
- MIC of Cefoxitine [5, 11]: 2 mg/L
- MIC of Tigecycline [5, 11]: 0.25 mg/L
- MIC of Cefoxitine ([5]; booster 16 mg/L in agar, DMSO): 1 mg/L
- MIC of Tigecycline ([5]; booster 16 mg/L in agar, DMSO): 0.032 mg/L
- MIC of Cefoxitine [5, 12]: 1.5 mg/L
- MIC of Tigecycline [5, 12]: 0.047 mg/L
- MIC 50 ([6]; solvent DMSO): 1.00%
- MIC 90 ([6]; solvent DMSO): 1.00%
- MIC 50 ([6]; solvent Tween/prop glyc): >1%
- MIC 90 ([6]; solvent Tween/prop glyc): >1%
- MIC 50 ([6]; solvent Tween/water): >1%
- MIC 90 ([6]; solvent Tween/water): >1%
- MIC 50 ([6]; solvent water/water): >1%
- MIC 90 ([6]; solvent water/water): >1%
- MIC ([7]; booster 1 mg/L in agar, DMSO): 6 µg/mL
- MIC [7, 10]: 8 µg/mL
- MIC ([7]; booster 4 mg/L in agar, DMSO): 8 µg/mL
- MIC [7, 11]: 6 µg/mL
- MIC ([7]; booster 16 mg/L in agar, DMSO): 6 µg/mL
- MIC [7, 12]: 4 µg/mL
- MIC of Meropenem ([7]; booster 1 mg/L in agar, DMSO): 1.5 mg/L
- MIC of Meropenem [7, 10]: 3 mg/L
- MIC of Meropenem ([7]; booster 4 mg/L in agar, DMSO): 2 mg/L
- MIC of Meropenem [7, 11]: 3 mg/L
- MIC of Meropenem ([7]; booster 16 mg/L in agar, DMSO): 2 mg/L
- MIC of Meropenem [7, 12]: 1 mg/L
- MIC [8]: > 10000 µg/mL
- MIC 50 ([9]; solvent DMSO): 1.00%
- MIC 90 ([9]; solvent DMSO): 1.00%
- MIC 50 ([9]; solvent Tween/prop glyc): >1%
- MIC 90 ([9]; solvent Tween/prop glyc): >1%
- MIC 50 ([9]; solvent Tween/water): >1%
- MIC 90 ([9]; solvent Tween/water): >1%
- MIC 50 ([9]; solvent water/water): >1%
- MIC 90 ([9]; solvent water/water): >1%
